Data taken from DBAASP.
Values after ≈ are worked out from the molar mass of the structure shown.

Tests used:
Experiment in all cases: ≥ marks a high value that may be exact or a test limit, other limits are often not marked, values filed in µg/mL are converted to µM
[1] = system: Pectobacterium carotovorum
[2] = system: Staphylococcus aureus C622
[3] = system: Acinetobacter baumannii ATCC 17978
Escherichia coli O157:H7 = system: Escherichia coli O157:H7
Bacillus subtilis C626 = system: Bacillus subtilis C626
Escherichia coli NIHJ = system: Escherichia coli NIHJ
[4] = system: Bacillus subtilis ATCC 6633
[5] = system: Micrococcus luteus ATCC 9341
[6] = system: Staphylococcus aureus 209P
[7] = system: Pseudomonas aeruginosa PAO1
[8] = system: Streptococcus pyogenes COOK
[9] = system: Staphylococcus aureus ATCC 29213
[10] = system: Pseudomonas aeruginosa XJ75315
[11] = system: Pseudomonas aeruginosa ATCC 27853
Escherichia coli = system: Escherichia coli
[12] = system: Shigella flexneri ATCC 12022
[13] = system: Salmonella typhimurium SL1344
[14] = system: Escherichia coli ATCC 35218
[15] = system: Klebsiella pneumoniae XJ75297
[16] = system: Staphylococcus epidermidis
[17] = system: Escherichia coli ATCC 25922
[18] = system: Listeria monocytogenes ATCC 19111
[19] = system: Acinetobacter baumannii ATCC 19606
[20] = system: Escherichia coli MTCC 0723
[21] = system: Acinetobacter johnsonii NCDC 0072
[22] = system: Bacillus cereus NCDC 0240
[23] = system: Staphylococcus aureus ATCC 35556
[24] = system: Staphylococcus aureus NCDC 0111
[25] = system: Klebsiella pneumoniae ATCC 700603
[26] = system: Pseudomonas aeruginosa NCDC 0105
[27] = system: Salmonella enterica subsp. enterica serovar Typhimurium ATCC 14028
[28] = system: Bacillus subtilis ATCC 6051
[29] = system: Salmonella enterica subsp. enterica serovar Typhimurium ATCC 700931
Escherichia coli D31 = system: Escherichia coli D31
[30] = system: Staphylococcus aureus CCT 2580
[31] = system: Escherichia coli CCT 1457
[32] = system: Bacillus cereus ATCC 11778
[33] = system: Pseudomonas aeruginosa ATCC 15422

With CC[C@H](C)[C@H](NC(=O)[C@H](CO)NC(=O)[C@H](CCCN=C(N)N)NC(=O)CNC(=O)[C@H](CCC(=O)O)NC(=O)[C@@H](N)CC(C)C)C(=O)N[C@@H](CO)C(=O)N[C@@H](CCCN=C(N)N)C(=O)N[C@H](C(=O)N[C@@H](CC(=O)O)C(=O)N[C@@H](CCC(=O)O)C(=O)N[C@@H](CC(C)C)C(=O)N[C@H](C(=O)N[C@@H](CCC(N)=O)C(=O)N[C@@H](CCC(N)=O)C(=O)N[C@@H](CCCN=C(N)N)C(=O)N[C@@H](CCC(N)=O)C(=O)N[C@@H](CCC(=O)O)C(=O)N[C@@H](CCCCN)C(=O)N[C@@H](CC(=O)O)C(=O)O)[C@@H](C)CC)[C@@H](C)CC [LEGRSISRIDELIQQRQEKD] the MIC [1] was 2.04 µM (≈ 4.92 µg/mL).

Work on CC[C@H](C)[C@H](NC(=O)[C@H](Cc1c[nH]c2ccccc12)NC(=O)[C@H](CCCN=C(N)N)NC(=O)[C@H](Cc1c[nH]c2ccccc12)NC(=O)[C@H](Cc1c[nH]c2ccccc12)NC(=O)[C@H](CCCCN)NC(=O)[C@@H](N)CCCN=C(N)N)C(=O)N[C@@H](CCCCN)C(=O)N[C@@H](Cc1c[nH]c2ccccc12)C(N)=O [RKWWRWIKW] yielded an MIC [2] of 2.5 µM (≈ 3.61 µg/mL), an MIC [3] of 5 µM (≈ 7.22 µg/mL) and an MIC (Escherichia coli O157:H7) of 1.25 µM (≈ 1.8 µg/mL). The MIC (Bacillus subtilis C626) was 20 µM (≈ 28.9 µg/mL).

Molecule CC[C@H](C)[C@H](NC(=O)[C@H](CC(C)C)NC(=O)[C@H](CO)NC(=O)[C@H](Cc1ccccc1)NC(=O)[C@H](CC(C)C)NC(=O)[C@@H](N)CO)C(=O)N[C@@H](CCCCN)C(=O)N[C@@H](C)C(=O)NCC(=O)N[C@@H](C)C(=O)N[C@@H](CCCCN)C(=O)N[C@@H](Cc1ccccc1)C(=O)N[C@@H](CC(C)C)C(=O)NCC(=O)N[C@@H](CCCCN)C(=O)N[C@@H](CC(N)=O)C(=O)N[C@@H](CC(C)C)C(=O)N[C@@H](CC(C)C)C(=O)N[C@@H](CCCCN)C(=O)N[C@@H](CCC(N)=O)C(=O)NCC(=O)N[C@@H](C)C(=O)N[C@@H](CCC(N)=O)C(=O)N[C@@H](Cc1ccc(O)cc1)C(=O)N[C@@H](C)C(=O)N[C@@H](C)C(=O)N[C@H]1CSSC[C@@H](C(=O)O)NC(=O)[C@H](CCC(=O)O)NC(=O)[C@H](CCCCN)NC(=O)[C@H](CO)NC(=O)[C@H](C(C)C)NC(=O)[C@H](CCCCN)NC1=O [SLFSLIKAGAKFLGKNLLKQGAQYAACKVSKEC] has an MIC (Escherichia coli NIHJ) of 3.56 µM (≈ 12.5 µg/mL), an MIC [4] of 1.78 µM (≈ 6.25 µg/mL) and an MIC [5] of 0.444 µM (≈ 1.56 µg/mL). It also gave an MIC [6] of 1.78 µM (≈ 6.25 µg/mL), an MIC [7] of 28.4 µM (≈ 99.9 µg/mL) and an MIC [8] of 3.56 µM (≈ 12.5 µg/mL).

For CC[C@H](C)[C@H](NC(=O)[C@@H](NC(=O)[C@@H]1CCCN1C(=O)[C@@H](NC(=O)[C@@H]1CCCN1C(=O)[C@H](CCCCN)NC(=O)[C@H](CCCCN)NC(=O)[C@H](CO)NC(=O)CN)C(C)C)[C@@H](C)CC)C(=O)N[C@@H](Cc1ccc(O)cc1)C(=O)N[C@@H](CS)C(=O)N[C@@H](CC(N)=O)C(=O)N[C@@H](CCCN=C(N)N)C(=O)N[C@@H](CCCN=C(N)N)C(=O)N[C@H](C(=O)NCC(=O)N[C@@H](CCCCN)C(=O)N[C@@H](CS)C(=O)N[C@@H](CCC(N)=O)C(=O)N[C@@H](CCCN=C(N)N)C(=O)N[C@@H](CCSC)C(=O)O)[C@@H](C)O [GSKKPVPIIYCNRRTGKCQRM], the MIC [9] was 105 µM (≈ 256 µg/mL), the MIC [10] was 0.41 µM (≈ 1 µg/mL) and the MIC [11] was 6.57 µM (≈ 16 µg/mL). For the same molecule, the MIC (Escherichia coli) was 0.41 µM (≈ 1 µg/mL), the MIC [12] was 0.103 µM (≈ 0.25 µg/mL) and the MIC [13] was 0.41 µM (≈ 1 µg/mL). The MIC [14] was 0.41 µM (≈ 1 µg/mL), the MIC [15] was 0.41 µM (≈ 1 µg/mL) and the MIC [16] was 6.57 µM (≈ 16 µg/mL). For the same molecule, the MIC [17] was 0.41 µM (≈ 1 µg/mL).

CC[C@H](C)[C@H](NC(=O)[C@H](Cc1c[nH]c2ccccc12)NC(=O)[C@@H](NC(=O)[C@H](Cc1c[nH]c2ccccc12)NC(=O)[C@@H]1CCCN1C(=O)[C@@H](NC(=O)[C@H](C)N)[C@@H](C)CC)[C@@H](C)CC)C(=O)N[C@@H](Cc1c[nH]c2ccccc12)C(=O)N[C@@H](CCCN=C(N)N)C(=O)N[C@@H](CC(C)C)C(=O)N[C@@H](CC(C)C)C(=O)N[C@@H](CCCN=C(N)N)C(=O)N[C@@H](CCCCN)C(=O)NCC(=O)O [AIPWIWIWRLLRKG] was tested, and the MIC [18] was 12.5 µM (≈ 22.6 µg/mL), the MIC [19] was 3.75 µM (≈ 6.78 µg/mL) and the MIC [9] was 0.4 µM (≈ 0.723 µg/mL). For the same molecule, the MIC [20] was 6 µM (≈ 10.8 µg/mL), the MIC [21] was 12.5 µM (≈ 22.6 µg/mL) and the MIC [22] was 12.5 µM (≈ 22.6 µg/mL). It also gave an MIC [7] of 15 µM (≈ 27.1 µg/mL), an MIC [11] of 0.4 µM (≈ 0.723 µg/mL) and an MIC [23] of 3.75 µM (≈ 6.78 µg/mL). The MIC [24] was 0.4 µM (≈ 0.723 µg/mL), the MIC [25] was > 15 µM and the MIC [26] was 3 µM (≈ 5.42 µg/mL). It also gave an MIC [27] of 6 µM (≈ 10.8 µg/mL), an MIC [28] of 0.23 µM (≈ 0.416 µg/mL) and an MIC [29] of 15 µM (≈ 27.1 µg/mL). For the same molecule, the MIC (Escherichia coli D31) was 7.5 µM (≈ 13.6 µg/mL).

For CC[C@H](C)[C@H](N)C(=O)N[C@@H](CC(N)=O)C(=O)N[C@@H](Cc1c[nH]c2ccccc12)C(=O)N[C@@H](CCCCN)C(=O)N[C@@H](C)C(=O)N[C@@H](CC(C)C)C(=O)N[C@@H](CC(C)C)C(=O)N[C@@H](CC(=O)O)C(=O)N[C@@H](C)C(=O)N[C@@H](C)C(=O)N[C@@H](CCCCN)C(=O)N[C@@H](CCCCN)C(=O)N[C@H](C(=O)N[C@@H](CC(C)C)C(=O)O)C(C)C [INWKALLDAAKKVL], the MIC [30] was ≥ 158 µM, the MIC [31] was ≥ 39.5 µM and the MIC [32] was ≥ 39.5 µM. The MIC [33] was ≥ 316 µM.
